Hepatotoxicity data for 32 compounds are collected here from ChEMBL document CHEMBL1697731, “Cheminformatics analysis of assertions mined from literature that describe drug-induced liver injury in different species” (Chem Res Toxicol, 2010).

Series [1] has as its system Hepatotoxicity. Nature of the series: Literature-mined compound from Fourches et al multi-species drug-induced liver injury (DILI) dataset, effect in rodents. Conditions: rodentia.
Series [2] relates to Hepatotoxicity. Nature of the series: Literature-mined compound from Fourches et al multi-species drug-induced liver injury (DILI) dataset, effect in humans. To be noted: human.
For series [3], the system named is Hepatotoxicity. Nature of the series: Literature-mined compound from Fourches et al multi-species drug-induced liver injury (DILI) dataset, effect in non-rodents.

`CC(=O)[O][Zn][O]C(C)=O` [ZINC ACETATE ANHYDROUS]: the Hepatotoxicity result is listed as “drug-induced liver injury reported” with Hepatotoxicity [1] (Liver), “no drug-induced liver injury reported” in the series with Hepatotoxicity [2] (Liver) and “no drug-induced liver injury reported” in the series with Hepatotoxicity [3] (Liver).

Turning to `CC(C)c1nc(N(C)S(C)(=O)=O)nc(-c2ccc(F)cc2)c1/C=C/[C@@H](O)C[C@@H](O)CC(=O)O` [ROSUVASTATIN], the Hepatotoxicity entry in the series on Hepatotoxicity [1] is given as “drug-induced liver injury reported”; with Hepatotoxicity [2], “no drug-induced liver injury reported”; with Hepatotoxicity [3], “no drug-induced liver injury reported”.

In the case of `O=C([O-])c1ccccc1.[Na+]` [SODIUM BENZOATE], the values for the Hepatotoxicity entry in the series with Hepatotoxicity [1], in the series with Hepatotoxicity [2] and in the series with Hepatotoxicity [3] were “drug-induced liver injury reported”, “no drug-induced liver injury reported” and “no drug-induced liver injury reported”, respectively.

Take `CNC(=O)[C@H](Cc1c[nH]c2ccccc12)NC(=O)[C@@H](CC(=O)NO)CC(C)C` [ILOMASTAT]: the Hepatotoxicity result in the series on Hepatotoxicity [1] is “drug-induced liver injury reported”; in the series on Hepatotoxicity [2], “no drug-induced liver injury reported”; with Hepatotoxicity [3], “no drug-induced liver injury reported”.

Regarding `NC[C@H]1O[C@H](O[C@H]2[C@H](O)[C@@H](O[C@H]3O[C@H](CO)[C@@H](O)[C@H](N)[C@H]3O)[C@H](N)C[C@@H]2N)[C@H](N)C[C@@H]1O` [TOBRAMYCIN], the Hepatotoxicity entry with Hepatotoxicity [1] is recorded as “drug-induced liver injury reported”; in the series with Hepatotoxicity [2] it was “no drug-induced liver injury reported”; in the series with Hepatotoxicity [3], “no drug-induced liver injury reported”.

Regarding `CN1C(=O)CN=C(c2ccccc2F)c2cc([N+](=O)[O-])ccc21` [FLUNITRAZEPAM], the Hepatotoxicity entry is reported as “no drug-induced liver injury reported” in the series with Hepatotoxicity [1], “no drug-induced liver injury reported” in the series on Hepatotoxicity [2] and “drug-induced liver injury reported” with Hepatotoxicity [3].

As for `CCOC(=O)C1=C(COCCN)NC(C)=C(C(=O)OC)C1c1ccccc1Cl` (stereo unspecified) [AMLODIPINE], the results for the Hepatotoxicity result with Hepatotoxicity [1], with Hepatotoxicity [2] and in the series on Hepatotoxicity [3] were “drug-induced liver injury reported”, “no drug-induced liver injury reported” and “no drug-induced liver injury reported”, respectively.

In the case of `Cn1c(=O)c2[nH]cnc2n(C)c1=O.O` [THEOPHYLLINE], the Hepatotoxicity entry in the series on Hepatotoxicity [1], in the series on Hepatotoxicity [2] and in the series with Hepatotoxicity [3] was “drug-induced liver injury reported” throughout.

With `CCN[C@@H]1C[C@H](N)[C@@H](O[C@H]2OC(CN)=CC[C@H]2N)[C@H](O)[C@H]1O[C@H]1OC[C@](C)(O)[C@H](NC)[C@H]1O` [NETILMICIN], the Hepatotoxicity result in the series with Hepatotoxicity [1] is “drug-induced liver injury reported”; in the series on Hepatotoxicity [2] it was “drug-induced liver injury reported”; in the series with Hepatotoxicity [3] it was “no drug-induced liver injury reported”.

In the case of `O=C1Nc2ccc(Cl)cc2[C@@](C#CC2CC2)(C(F)(F)F)O1` [EFAVIRENZ], the Hepatotoxicity result with Hepatotoxicity [1] was “drug-induced liver injury reported”; in the series on Hepatotoxicity [2] it was “drug-induced liver injury reported”; in the series with Hepatotoxicity [3] it was “no drug-induced liver injury reported”.

With `O=C(CCCN1CCC(O)(c2ccc(Cl)cc2)CC1)c1ccc(F)cc1` [HALOPERIDOL], the Hepatotoxicity result with Hepatotoxicity [1], with Hepatotoxicity [2] and in the series with Hepatotoxicity [3] was “drug-induced liver injury reported” in each case.

`NC(=O)CC[C@H](N)C(=O)O` [GLUTAMINE]: the Hepatotoxicity result in the series on Hepatotoxicity [1], in the series on Hepatotoxicity [2] and in the series on Hepatotoxicity [3] was “drug-induced liver injury reported” each time.

Take `NC(=O)N1c2ccccc2C=Cc2ccccc21` [CARBAMAZEPINE]: the Hepatotoxicity entry in the series on Hepatotoxicity [1] was “drug-induced liver injury reported”; in the series on Hepatotoxicity [2], “drug-induced liver injury reported”; in the series with Hepatotoxicity [3], “no drug-induced liver injury reported”.

As to `COc1ccc2c(c1OC)C(=O)O[C@@H]2[C@H]1c2c(cc3c(c2OC)OCO3)CCN1C` [NOSCAPINE], the figures for the Hepatotoxicity entry with Hepatotoxicity [1], with Hepatotoxicity [2] and in the series on Hepatotoxicity [3] were “drug-induced liver injury reported”, “no drug-induced liver injury reported” and “no drug-induced liver injury reported”, respectively.

Regarding `COc1cc(/C=C/C(=O)CC(=O)/C=C/c2ccc(O)c(OC)c2)ccc1O` [CURCUMIN], the Hepatotoxicity result is given as “drug-induced liver injury reported” with Hepatotoxicity [1], “drug-induced liver injury reported” in the series on Hepatotoxicity [2] and “no drug-induced liver injury reported” in the series with Hepatotoxicity [3].

On to `CC(=O)CC(c1ccccc1)c1c(O)c2ccccc2oc1=O` (stereo unspecified) [WARFARIN], for which the Hepatotoxicity result with Hepatotoxicity [1] is “drug-induced liver injury reported”; with Hepatotoxicity [2], “drug-induced liver injury reported”; in the series with Hepatotoxicity [3], “no drug-induced liver injury reported”.

Take `CC[C@H]1OC(=O)[C@H](C)[C@@H](O[C@H]2C[C@@](C)(OC)[C@@H](O)[C@H](C)O2)[C@H](C)[C@@H](O[C@@H]2O[C@H](C)C[C@H](N(C)C)[C@H]2O)[C@](C)(O)C[C@@H](C)C(=O)[C@H](C)[C@@H](O)[C@]1(C)O` [ERYTHROMYCIN]: the values for the Hepatotoxicity result with Hepatotoxicity [1], in the series on Hepatotoxicity [2] and in the series with Hepatotoxicity [3] were “drug-induced liver injury reported”, “drug-induced liver injury reported” and “no drug-induced liver injury reported”, respectively.

Regarding `NCCCCCC(=O)O` [AMINOCAPROIC ACID], the Hepatotoxicity result with Hepatotoxicity [1] is on record as “no drug-induced liver injury reported”; in the series on Hepatotoxicity [2], “drug-induced liver injury reported”; in the series on Hepatotoxicity [3], “no drug-induced liver injury reported”.

`CCN[C@@H](C)Cc1cccc(C(F)(F)F)c1` [DEXFENFLURAMINE]: the figures for the Hepatotoxicity entry in the series with Hepatotoxicity [1], with Hepatotoxicity [2] and in the series with Hepatotoxicity [3] were “drug-induced liver injury reported”, “drug-induced liver injury reported” and “no drug-induced liver injury reported”, respectively.

Regarding `C[C@@H]1O[C@@H]1P(=O)(O)O` [FOSFOMYCIN], the Hepatotoxicity entry in the series with Hepatotoxicity [1] was “no drug-induced liver injury reported”; in the series on Hepatotoxicity [2], “drug-induced liver injury reported”; in the series with Hepatotoxicity [3], “no drug-induced liver injury reported”.

For `CC1(C)[C@H](C(=O)O)N2C(=O)C[C@H]2S1(=O)=O` [SULBACTAM], the Hepatotoxicity result is reported as “no drug-induced liver injury reported” in the series on Hepatotoxicity [1], “drug-induced liver injury reported” with Hepatotoxicity [2] and “no drug-induced liver injury reported” with Hepatotoxicity [3].

On to `COc1ccc(CN2CCNCC2)c(OC)c1OC` [TRIMETAZIDINE], for which the figures for the Hepatotoxicity entry with Hepatotoxicity [1], in the series on Hepatotoxicity [2] and with Hepatotoxicity [3] were “drug-induced liver injury reported”, “drug-induced liver injury reported” and “no drug-induced liver injury reported”, respectively.

Consider `COc1cccc2c1C(=O)c1c(O)c3c(c(O)c1C2=O)C[C@@](O)(C(=O)CO)C[C@@H]3O[C@H]1C[C@H](N)[C@@H](O)[C@H](C)O1` [EPIRUBICIN], for which the results for the Hepatotoxicity entry in the series with Hepatotoxicity [1], in the series with Hepatotoxicity [2] and in the series on Hepatotoxicity [3] were “drug-induced liver injury reported”, “no drug-induced liver injury reported” and “no drug-induced liver injury reported”, respectively.

For `FC(F)(F)C(F)(F)C(F)(F)C(F)(F)C(F)(F)C(F)(F)C(F)(F)C(F)(F)Br` [PERFLUBRON], the figures for the Hepatotoxicity result in the series with Hepatotoxicity [1], in the series with Hepatotoxicity [2] and in the series with Hepatotoxicity [3] were “no drug-induced liver injury reported”, “drug-induced liver injury reported” and “drug-induced liver injury reported”, respectively.

Take `O=c1[nH]c(=O)n([C@H]2C[C@H](O)[C@@H](CO)O2)cc1F` [FLOXURIDINE]: the Hepatotoxicity result in the series on Hepatotoxicity [1] was “drug-induced liver injury reported”; with Hepatotoxicity [2], “drug-induced liver injury reported”; in the series with Hepatotoxicity [3], “no drug-induced liver injury reported”.

Regarding `CC1(C)[C@@H](O)CC[C@]2(C)[C@H]3C(=O)C=C4[C@@H]5C[C@@](C)(C(=O)O)CC[C@]5(C)CC[C@@]4(C)[C@]3(C)CC[C@@H]12` [ENOXOLONE], the values for the Hepatotoxicity entry with Hepatotoxicity [1], in the series with Hepatotoxicity [2] and with Hepatotoxicity [3] were “drug-induced liver injury reported”, “drug-induced liver injury reported” and “no drug-induced liver injury reported”, respectively.

Turning to `C#C[C@]1(O)CC[C@H]2[C@@H]3CCc4cc(OC5CCCC5)ccc4[C@H]3CC[C@@]21C` [QUINESTROL], the Hepatotoxicity entry with Hepatotoxicity [1] is “drug-induced liver injury reported”; in the series on Hepatotoxicity [2], “no drug-induced liver injury reported”; in the series on Hepatotoxicity [3], “no drug-induced liver injury reported”.

`C[C@H]1C[C@@H]2[C@H]([C@@H](O)C[C@@]3(C)[C@H]2CC[C@]3(O)C(=O)CO)[C@@]2(C)C=CC(=O)C=C12` [METHYLPREDNISOLONE]: the Hepatotoxicity result with Hepatotoxicity [1] is reported as “drug-induced liver injury reported”; with Hepatotoxicity [2] it was “drug-induced liver injury reported”; with Hepatotoxicity [3], “no drug-induced liver injury reported”.

As for `Oc1c2ccccc2c2c3c(cccc13)N=N2` [SP-600125], the Hepatotoxicity result in the series with Hepatotoxicity [1] is recorded as “drug-induced liver injury reported”; in the series on Hepatotoxicity [2], “drug-induced liver injury reported”; in the series on Hepatotoxicity [3], “no drug-induced liver injury reported”.

With `CCCCC[C@H](O)/C=C/[C@@H]1[C@@H](C/C=C\CCCC(=O)O)[C@@H](O)C[C@H]1O` [DINOPROST], the Hepatotoxicity result in the series with Hepatotoxicity [1], in the series on Hepatotoxicity [2] and in the series with Hepatotoxicity [3] was “drug-induced liver injury reported” each time.

For `CN(C)CCOC(c1ccccc1)c1ccccc1` [DIPHENHYDRAMINE], the Hepatotoxicity result in the series on Hepatotoxicity [1] (Liver) is reported as “drug-induced liver injury reported”; with Hepatotoxicity [2] (Liver), “no drug-induced liver injury reported”; in the series with Hepatotoxicity [3] (Liver), “no drug-induced liver injury reported”.

For `O=C1[C@H](CC[C@H](O)c2ccc(F)cc2)[C@@H](c2ccc(O)cc2)N1c1ccc(F)cc1` [EZETIMIBE], the Hepatotoxicity result in the series on Hepatotoxicity [1], in the series on Hepatotoxicity [2] and with Hepatotoxicity [3] was “drug-induced liver injury reported” throughout.
